# PubChem BioAssay (NCI)
# Several values for one entry are separate records, joined by “and”; a condition that tells them apart may be missing. Equal entries are not always repeated.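 Growth conditions: 96-well plates. Treatment: test compound, 48 hours, 5 concentrations. Analysis: linear interpolation between bracketing concentrations; unreached endpoints set to highest concentration. Abbreviation: GI50, concentration required for 50% inhibition of growth. TGI denotes the concentration required for complete inhibition of growth.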
# Tests used:
# Experiment in all cases: growth of human tumour cells (NCI), 48 h
# HOP-92 NSCLC = system: HOP-92 NSCLC
# 786-0 renal = system: 786-0 renal
# A549 NSCLC = system: A549 NSCLC
# MOLT-4 leukemia = system: MOLT-4 leukemia
# OVCAR-4 ovarian = system: OVCAR-4 ovarian
# HCT-15 colon = system: HCT-15 colon
# NCI-H226 lung = system: NCI-H226 lung
# NCI/ADR-RES ovarian = system: NCI/ADR-RES ovarian
# NCI-H460 lung = system: NCI-H460 lung
SMILES,TGI (HOP-92 NSCLC),TGI (786-0 renal),TGI (A549 NSCLC),TGI (MOLT-4 leukemia),TGI (OVCAR-4 ovarian),TGI (HCT-15 colon),TGI (NCI-H226 lung),TGI (NCI/ADR-RES ovarian),TGI (NCI-H460 lung),GI50 (HOP-92 NSCLC),GI50 (786-0 renal),GI50 (A549 NSCLC),GI50 (MOLT-4 leukemia),GI50 (OVCAR-4 ovarian),GI50 (NCI-H460 lung),GI50 (HCT-15 colon),GI50 (NCI-H226 lung),GI50 (NCI/ADR-RES ovarian)
COc1ccc(-c2cc(=O)c3c(O)c(OC)c(OC)c(OC)c3o2)cc1OC,28 µM,> 100 µM,> 100 µM,> 100 µM,> 100 µM,> 100 µM,> 100 µM,> 100 µM,,,,,,,,,,
COC(=O)C(=O)C(C(=O)OC)C(=O)C(=O)Nc1c(C)cccc1C (stereo unspecified),> 100 µM,> 100 µM,> 100 µM,> 100 µM,> 100 µM,> 100 µM,> 100 µM,,> 100 µM,,,,,,,,,
COc1cc2c(c(OC)c1OC)-c1ccc(NN(C(=O)c3ccccc3)C(=O)c3ccccc3)c(=O)cc1[C@@H](NC(C)=O)CC2 (tested in a mixture with another compound),> 100 µM,13.4 µM,> 100 µM,> 100 µM,> 100 µM,14.9 µM,37.4 µM,> 100 µM,11.2 µM,3.84 µM,3.31 µM,4.02 µM,4.08 µM,7.06 µM,2.98 µM,3.64 µM,10.6 µM,4.37 µM
O=C1[C@@H]2C(c3ccc(Br)cc3)=NO[C@@H]2C(=O)N1c1ccc(Cc2ccc(N3C(=O)[C@H]4C(c5ccc(Br)cc5)=NO[C@H]4C3=O)cc2)cc1,> 40 µM,> 3.48 µM,> 3.48 µM,> 40 µM,> 40 µM,> 40 µM,,,> 40 µM,,,,> 40 µM,> 40 µM,> 40 µM,,,
Cc1ccc(NC(=O)CCCC(=O)CC(=O)c2ccc(Br)cc2)cc1,> 100 µM,> 100 µM,> 100 µM,> 100 µM,> 100 µM,> 100 µM,> 100 µM,,> 100 µM,,,,,,,,,
CN=c1ss/c(=N\C(=S)N(C)C)n1C,> 100 µM,> 100 µM,> 100 µM,> 100 µM,> 100 µM,> 100 µM,> 100 µM,,> 100 µM,,,,,,,,,
O=C1C(c2ccccc2)=C(c2ccccc2)C(c2ccc(Cc3ccc(C4=C(c5ccccc5)C(=O)C(c5ccccc5)=C4c4ccccc4)cc3)cc2)=C1c1ccccc1,> 100 µM,> 100 µM,> 100 µM,> 100 µM,> 100 µM,> 100 µM,> 100 µM,,> 100 µM,,,,,,,,,
COc1cc(C2c3cc4c(cc3[C@@H](NCCN(C)C)C3COC(=O)[C@H]23)OCO4)cc(OC)c1O (stereo partly specified),0.0928 µM and 0.335 µM,0.457 µM and 1.1 µM,,,5.19 µM and 13.3 µM,2.63 µM,0.0481 µM and 0.152 µM,,0.135 µM and 0.326 µM,,0.0355 µM and 0.132 µM,,,,,1.02 µM,,
CC(C)(CN1C(=O)C(Cl)=C(Cl)C1=O)CN1C(=O)C(Cl)=C(Cl)C1=O,18.1 µM,28.6 µM,> 72.7 µM,30.1 µM,43.4 µM,48.8 µM,53.4 µM,,> 77.3 µM,,,,,,,,,
Cc1nc(N)nc(N)c1CCCCc1ccc(N)cc1,18 µM,18.9 µM,16.8 µM,35.2 µM,25.8 µM,18.4 µM,56.1 µM,,13.6 µM,,,,,,,,,
O=S1(=O)N2CN3CN(C2)CN1C3,,179 µM,935 µM,864 µM,80.8 µM,53.4 µM and 67.2 µM,188 µM,,272 µM,,,,,,,,,
O=[N+]([O-])c1ccc(C2=Nc3ccccc3S(=O)C(c3ccccc3)C2)cc1 (stereo unspecified),,35.1 µM,> 100 µM,57.7 µM,42 µM,76.2 µM,49.4 µM,,71 µM,,,,,,,,,
CCCCC1=CSC(c2ccccc2)=C(c2ccccc2)S1,60.9 µM,> 100 µM,> 100 µM,> 100 µM,> 100 µM,> 100 µM,> 100 µM,,> 100 µM,,,,,,,,,
COc1ccccc1NC(=O)C1=C(C)NC(C)=C(C(=O)Nc2ccccc2OC)C1c1ccccc1[N+](=O)[O-],59.5 µM,35.5 µM,> 100 µM,49.5 µM,46.3 µM,27.5 µM,35.2 µM,,32.8 µM,,,,,,,,,
CC(C)(C)c1cc(CCC(=O)Nc2ccc(Cl)cc2)[nH]c(=S)n1,,> 100 µM,> 100 µM,> 100 µM,> 100 µM,> 100 µM,> 100 µM,,> 100 µM,,,,,,,,,
Nc1nnc2c(-c3ccccc3)[nH]nc2n1,63.6 µM,> 100 µM,> 100 µM,> 100 µM,> 100 µM,> 100 µM,> 100 µM,,> 100 µM,,,,,,,,,
COc1cc[c]([Sn]([c]2ccc(OC)cc2)([c]2ccc(OC)cc2)[c]2ccc(OC)cc2)cc1,22.8 µM,43.5 µM,> 100 µM,39 µM,62.8 µM,> 100 µM,,,> 100 µM,4.2 µM,18.1 µM,25.9 µM,10.7 µM,16.8 µM,30.5 µM,> 100 µM,,
